This note sets out measurements from PubChem BioAssay (NCI).

SMILES strings stand for the structures. Where “and” joins values, the source holds several entries; their conditions need not be identical. Identical values can stand only once.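 Values below derive from 48-hour exposures of cells grown in 96-well plates, with endpoints linearly interpolated between the two concentrations bracketing the appropriate inhibition level. GI50 = concentration required for 50% inhibition of growth. Definition used: TGI = concentration required for complete inhibition of growth.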

Test systems include TK-10 renal; SK-MEL-5 melanoma; SR leukemia; NCI/ADR-RES ovarian; OVCAR-5 ovarian; SF-268 CNS; SK-MEL-28 melanoma; UACC-62 melanoma; HCT-116 colon; MDA-MB-231 breast.
Holding throughout (assay): growth of human tumour cells (NCI), 48 h

For `Cn1cc(-c2cc3c(Nc4ccc(CC(=O)Nc5cc(C(C)(C)C)on5)cc4)ncnc3[nH]2)cn1`, the GI50 is 2.74 µM and 2.44 µM in the assay on TK-10 renal; 1.4 µM and 1.31 µM in the assay with SK-MEL-5 melanoma; 0.328 µM and 0.324 µM in the assay on SR leukemia; 16.1 µM and 13.1 µM in the assay on NCI/ADR-RES ovarian; 1.3 µM and 1.08 µM in the assay on OVCAR-5 ovarian; 0.444 µM and 0.348 µM with SF-268 CNS. Moreover, the GI50 is 0.804 µM and 0.508 µM in the assay with SK-MEL-28 melanoma; 0.583 µM and 0.455 µM in the assay with UACC-62 melanoma; 0.68 µM and 0.337 µM with HCT-116 colon; 0.797 µM and 0.786 µM with MDA-MB-231 breast. The TGI with TK-10 renal was 8.91 µM and 7.4 µM; in the assay with SK-MEL-5 melanoma, 4.77 µM and 4.43 µM; with SR leukemia, more than 53.7 µM; with NCI/ADR-RES ovarian, more than 100 µM; with OVCAR-5 ovarian, 7.18 µM and 6.62 µM; with SF-268 CNS, 1.67 µM and 1.18 µM. Besides, the TGI is 3.58 µM and 3 µM in the assay with SK-MEL-28 melanoma; 1.71 µM and 1.9 µM in the assay with UACC-62 melanoma; 4.86 µM and 1.99 µM with HCT-116 colon; 5.17 µM and 8.35 µM with MDA-MB-231 breast.

Take `O=C(c1ccccc1)c1ccc(-c2ccc(O)cc2)cc1`: the GI50 in the assay on TK-10 renal was 8.43 µM; with SK-MEL-5 melanoma, 1.05 µM; with SR leukemia it was 3 µM; in the assay on NCI/ADR-RES ovarian, 5.18 µM; with OVCAR-5 ovarian, 31 µM; in the assay on SF-268 CNS, 5.85 µM. Also, the GI50 with SK-MEL-28 melanoma is 10.4 µM; in the assay on UACC-62 melanoma it was 0.687 µM; with HCT-116 colon it was 8.42 µM; with MDA-MB-231 breast, 6.08 µM. The TGI was 50.7 µM in the assay with TK-10 renal; 11.8 µM with SK-MEL-5 melanoma; 18.1 µM in the assay on SR leukemia; 54.9 µM with NCI/ADR-RES ovarian; more than 100 µM with OVCAR-5 ovarian; 57.3 µM with SF-268 CNS. Besides, the TGI is more than 61.7 µM with SK-MEL-28 melanoma, 33.7 µM in the assay on UACC-62 melanoma, 44.7 µM in the assay on HCT-116 colon and 37.6 µM in the assay with MDA-MB-231 breast.

For `COC1=CC(c2ccc[nH]2)=N/C1=C\c1[nH]c(C)c(C(=O)CCC(=O)Oc2ccc3c(c2)CCC2C3CC[C@]3(C)C(=O)CC[C@@H]23)c1C` (stereo not given in full), the GI50 in the assay on TK-10 renal is 25.2 µM; in the assay with SK-MEL-5 melanoma, 3.48 µM; with SR leukemia, 0.634 µM; in the assay on NCI/ADR-RES ovarian, 12.6 µM; in the assay with OVCAR-5 ovarian it was 7.88 µM; with SF-268 CNS, 5.58 µM. For the same compound, the GI50 was more than 70.9 µM in the assay with SK-MEL-28 melanoma, 3.71 µM in the assay with UACC-62 melanoma, 0.773 µM in the assay on HCT-116 colon and 0.276 µM in the assay with MDA-MB-231 breast. Besides, the TGI is more than 92 µM with TK-10 renal; 19.6 µM in the assay with SK-MEL-5 melanoma; more than 100 µM in the assay on SR leukemia; more than 100 µM in the assay on NCI/ADR-RES ovarian; more than 81.6 µM with OVCAR-5 ovarian; more than 100 µM in the assay with SF-268 CNS. The TGI is more than 100 µM with SK-MEL-28 melanoma, 17.9 µM with UACC-62 melanoma, more than 100 µM with HCT-116 colon and 1.19 µM with MDA-MB-231 breast.

In the case of `O=C(NO)c1ccc(C(=O)NO)cc1`, the TGI in the assay on TK-10 renal was more than 100 µM; in the assay with SK-MEL-5 melanoma it was more than 100 µM; in the assay with SR leukemia, more than 100 µM; with NCI/ADR-RES ovarian, 26.2 µM; with OVCAR-5 ovarian, more than 100 µM; with SF-268 CNS it was more than 100 µM. Besides, the TGI in the assay with SK-MEL-28 melanoma, with UACC-62 melanoma, with HCT-116 colon and in the assay with MDA-MB-231 breast was more than 100 µM throughout.

In the case of `Cc1c(Cl)ccc2c1NC(=O)C2(O)CC(=O)c1ccc(Cl)cc1Cl` (stereo not given), the TGI in the assay on TK-10 renal was more than 50 µM; with SK-MEL-5 melanoma, more than 50 µM; in the assay on SR leukemia it was 0.826 µM; in the assay on NCI/ADR-RES ovarian, more than 50 µM; in the assay on OVCAR-5 ovarian it was more than 50 µM; in the assay with SF-268 CNS, more than 50 µM. The TGI in the assay on SK-MEL-28 melanoma, in the assay on UACC-62 melanoma, in the assay on HCT-116 colon and in the assay with MDA-MB-231 breast was more than 50 µM in each case.

For `CN(C)c1c(Cl)c(=O)oc2c1ccc1nc(-c3ccccc3)sc12`, the TGI in the assay with TK-10 renal, in the assay with SK-MEL-5 melanoma, in the assay on SR leukemia, with NCI/ADR-RES ovarian, in the assay with OVCAR-5 ovarian and with SF-268 CNS was more than 100 µM throughout. Further, the TGI in the assay with SK-MEL-28 melanoma, with UACC-62 melanoma, in the assay on HCT-116 colon and with MDA-MB-231 breast was more than 100 µM throughout.

With `O=S(=O)(c1cccc(C(F)(F)F)c1)N1c2ccccc2-n2cccc2C1c1cccnc1` (stereo not given), the TGI in the assay on TK-10 renal is more than 85.1 µM; in the assay on SK-MEL-5 melanoma it was more than 43 µM; in the assay on SR leukemia, 71.9 µM; with NCI/ADR-RES ovarian, 66.2 µM; in the assay on OVCAR-5 ovarian, more than 75.1 µM; in the assay on SF-268 CNS, more than 66 µM. Further, the TGI with SK-MEL-28 melanoma was more than 59 µM; with UACC-62 melanoma, more than 59.5 µM; with HCT-116 colon it was more than 52 µM; in the assay with MDA-MB-231 breast it was more than 54.5 µM.

For `O=C(CC12CC3CC(CC(C3)C1)C2)NCCOCCOCCNC(=O)c1cc2c(o1)C(=O)c1ccccc1C2=O`, the GI50 in the assay with TK-10 renal is 3.06 µM; in the assay with SK-MEL-5 melanoma, 0.176 µM; in the assay on SR leukemia, 1.08 µM; with NCI/ADR-RES ovarian, 2.07 µM; in the assay on OVCAR-5 ovarian, 1.69 µM; with SF-268 CNS, 1.68 µM. The GI50 in the assay with SK-MEL-28 melanoma was 1.58 µM; in the assay on UACC-62 melanoma, 0.271 µM; with HCT-116 colon, 1.58 µM; with MDA-MB-231 breast, 1.53 µM. Moreover, the TGI in the assay with TK-10 renal is 5.27 µM; with SK-MEL-5 melanoma, 0.328 µM; in the assay on SR leukemia, 6.55 µM; in the assay with NCI/ADR-RES ovarian, 5.87 µM; in the assay with OVCAR-5 ovarian, 3.09 µM; in the assay on SF-268 CNS, 3.9 µM. Moreover, the TGI in the assay on SK-MEL-28 melanoma came out at 3.09 µM; with UACC-62 melanoma, 0.748 µM; in the assay with HCT-116 colon, 4.96 µM; with MDA-MB-231 breast, 5.68 µM.

For the compound `Cn1ncc2c(Nc3ccc(Br)cc3)nc(Nc3ccc(Br)cc3)nc21`, the GI50 in the assay on TK-10 renal was 4.75 µM; with SK-MEL-5 melanoma it was 2.2 µM; in the assay with SR leukemia, 1.69 µM; with NCI/ADR-RES ovarian, 3.64 µM; with OVCAR-5 ovarian, 11.3 µM; in the assay with SF-268 CNS, 5.11 µM. The GI50 in the assay on SK-MEL-28 melanoma is 5.09 µM; in the assay with UACC-62 melanoma it was 2.32 µM; in the assay on HCT-116 colon, 3.22 µM; with MDA-MB-231 breast, 1.8 µM. The TGI in the assay on TK-10 renal was 19 µM; in the assay on SK-MEL-5 melanoma, 7.52 µM; with SR leukemia, 5.21 µM; with NCI/ADR-RES ovarian, 16.1 µM; in the assay on OVCAR-5 ovarian it was 24.1 µM; in the assay on SF-268 CNS, 15.8 µM. The TGI in the assay on SK-MEL-28 melanoma is 17 µM; with UACC-62 melanoma it was 6.82 µM; with HCT-116 colon, 11.9 µM; in the assay with MDA-MB-231 breast it was 3.68 µM.
